Laboratory results reported in ChEMBL document CHEMBL4507270 (2021).

Legend:
[1] = system: Tyrosine-protein kinase ABL1 (Homo sapiens), P00519 [E255K]
[2] = system: Tyrosine-protein kinase ABL1 (Homo sapiens), P00519 [H396P]
[3] = system: Tyrosine-protein kinase ABL1 (Homo sapiens), P00519 [T315I]
[4] = biological target: RAC-gamma serine/threonine-protein kinase (Homo sapiens) (UniProt Q9Y243)
[5] = biological target: Cyclin-dependent kinase 9 (Homo sapiens) (UniProt P50750)
[6] = biological target: Macrophage colony-stimulating factor 1 receptor (Homo sapiens) (UniProt P07333)
[7] = biological target: Epidermal growth factor receptor (Homo sapiens) (UniProt P00533)
[8] = biological target: Ephrin type-A receptor 4 (Homo sapiens) (UniProt P54764)
[9] = biological target: Ephrin type-B receptor 1 (Homo sapiens) (UniProt P54762)
[10] = biological target: Ephrin type-B receptor 3 (Homo sapiens) (UniProt P54753)
[11] = biological target: Ephrin type-B receptor 4 (Homo sapiens) (UniProt P54760)
[12] = biological target: Fibroblast growth factor receptor 2 (Homo sapiens) (UniProt P21802)
[13] = biological target: Fibroblast growth factor receptor 4 (Homo sapiens) (UniProt P22455)
Fibroblast growth factor receptor 4 (Homo sapiens), sequence (P22455 22-802 limits assumed): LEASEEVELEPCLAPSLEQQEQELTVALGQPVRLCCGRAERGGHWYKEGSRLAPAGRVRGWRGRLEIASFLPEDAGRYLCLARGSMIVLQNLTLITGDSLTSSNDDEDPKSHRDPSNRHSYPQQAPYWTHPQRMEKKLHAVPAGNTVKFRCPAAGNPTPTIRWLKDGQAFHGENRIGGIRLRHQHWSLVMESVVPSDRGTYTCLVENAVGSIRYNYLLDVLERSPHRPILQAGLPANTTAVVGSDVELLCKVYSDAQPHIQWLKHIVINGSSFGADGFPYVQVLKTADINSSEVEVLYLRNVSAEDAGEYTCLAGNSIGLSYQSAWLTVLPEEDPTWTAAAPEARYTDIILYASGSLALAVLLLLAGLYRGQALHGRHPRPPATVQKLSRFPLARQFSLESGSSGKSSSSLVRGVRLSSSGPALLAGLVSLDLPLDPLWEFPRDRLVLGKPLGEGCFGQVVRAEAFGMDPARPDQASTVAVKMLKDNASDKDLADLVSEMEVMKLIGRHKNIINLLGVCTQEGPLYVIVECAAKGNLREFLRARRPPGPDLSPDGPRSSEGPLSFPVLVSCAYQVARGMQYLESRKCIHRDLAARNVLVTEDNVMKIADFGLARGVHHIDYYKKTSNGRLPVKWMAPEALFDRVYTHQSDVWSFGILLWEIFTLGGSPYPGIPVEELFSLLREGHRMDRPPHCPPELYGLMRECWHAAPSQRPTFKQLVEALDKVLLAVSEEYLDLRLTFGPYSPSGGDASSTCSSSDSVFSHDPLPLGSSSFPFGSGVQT

[14] = biological target: Receptor-type tyrosine-protein kinase FLT3 (Homo sapiens) (UniProt P36888)
[15] = system: Receptor-type tyrosine-protein kinase FLT3 (Homo sapiens), P36888 [D835Y]
[16] = system: Receptor-type tyrosine-protein kinase FLT3 (Homo sapiens), P36888 [UNDEFINED MUTATION]
[17] = system: Receptor-type tyrosine-protein kinase FLT3 (Homo sapiens), P36888 [UNDEFINED MUTATION]; remark: listed apart in the source
[18] = biological target: Insulin receptor-related protein (Homo sapiens) (UniProt P14616)
Insulin receptor-related protein (Homo sapiens), sequence (P14616 27-742 limits assumed): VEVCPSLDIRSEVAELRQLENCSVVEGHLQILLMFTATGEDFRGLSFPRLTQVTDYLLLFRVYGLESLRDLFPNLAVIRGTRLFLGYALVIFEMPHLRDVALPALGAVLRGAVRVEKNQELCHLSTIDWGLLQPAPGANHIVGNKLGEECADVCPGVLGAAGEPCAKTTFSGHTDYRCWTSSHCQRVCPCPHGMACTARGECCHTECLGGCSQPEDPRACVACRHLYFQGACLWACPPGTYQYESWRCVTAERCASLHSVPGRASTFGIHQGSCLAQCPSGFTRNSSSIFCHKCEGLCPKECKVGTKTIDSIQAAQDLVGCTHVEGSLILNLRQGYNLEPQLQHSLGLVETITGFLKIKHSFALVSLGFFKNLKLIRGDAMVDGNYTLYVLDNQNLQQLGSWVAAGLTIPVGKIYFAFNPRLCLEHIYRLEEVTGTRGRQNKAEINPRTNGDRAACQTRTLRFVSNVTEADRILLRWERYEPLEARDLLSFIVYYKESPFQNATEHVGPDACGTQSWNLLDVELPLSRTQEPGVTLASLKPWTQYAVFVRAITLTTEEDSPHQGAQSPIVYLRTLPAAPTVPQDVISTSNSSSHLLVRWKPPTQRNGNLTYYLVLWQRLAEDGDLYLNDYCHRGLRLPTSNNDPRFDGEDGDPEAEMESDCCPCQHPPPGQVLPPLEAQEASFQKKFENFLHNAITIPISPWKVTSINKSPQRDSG
Insulin receptor-related protein (Homo sapiens), sequence (P14616 747-1297 limits assumed): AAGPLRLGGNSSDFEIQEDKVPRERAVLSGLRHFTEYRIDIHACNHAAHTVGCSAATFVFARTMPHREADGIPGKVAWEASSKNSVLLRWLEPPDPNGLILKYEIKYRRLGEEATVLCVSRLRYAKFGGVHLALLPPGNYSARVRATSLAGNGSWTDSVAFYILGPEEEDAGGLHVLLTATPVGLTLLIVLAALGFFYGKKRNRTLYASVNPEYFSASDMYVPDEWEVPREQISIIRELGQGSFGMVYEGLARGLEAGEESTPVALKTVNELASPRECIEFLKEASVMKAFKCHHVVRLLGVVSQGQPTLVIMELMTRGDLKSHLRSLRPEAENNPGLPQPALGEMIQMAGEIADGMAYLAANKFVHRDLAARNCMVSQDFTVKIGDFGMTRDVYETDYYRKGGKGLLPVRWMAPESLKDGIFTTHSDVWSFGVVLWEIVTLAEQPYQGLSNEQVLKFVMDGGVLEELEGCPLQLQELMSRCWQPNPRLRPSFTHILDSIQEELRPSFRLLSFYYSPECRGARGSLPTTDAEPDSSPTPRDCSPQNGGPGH

[19] = biological target: Mitogen-activated protein kinase kinase kinase 13 (Homo sapiens) (UniProt O43283)
Mitogen-activated protein kinase kinase kinase 13 (Homo sapiens), sequence (O43283 whole entry): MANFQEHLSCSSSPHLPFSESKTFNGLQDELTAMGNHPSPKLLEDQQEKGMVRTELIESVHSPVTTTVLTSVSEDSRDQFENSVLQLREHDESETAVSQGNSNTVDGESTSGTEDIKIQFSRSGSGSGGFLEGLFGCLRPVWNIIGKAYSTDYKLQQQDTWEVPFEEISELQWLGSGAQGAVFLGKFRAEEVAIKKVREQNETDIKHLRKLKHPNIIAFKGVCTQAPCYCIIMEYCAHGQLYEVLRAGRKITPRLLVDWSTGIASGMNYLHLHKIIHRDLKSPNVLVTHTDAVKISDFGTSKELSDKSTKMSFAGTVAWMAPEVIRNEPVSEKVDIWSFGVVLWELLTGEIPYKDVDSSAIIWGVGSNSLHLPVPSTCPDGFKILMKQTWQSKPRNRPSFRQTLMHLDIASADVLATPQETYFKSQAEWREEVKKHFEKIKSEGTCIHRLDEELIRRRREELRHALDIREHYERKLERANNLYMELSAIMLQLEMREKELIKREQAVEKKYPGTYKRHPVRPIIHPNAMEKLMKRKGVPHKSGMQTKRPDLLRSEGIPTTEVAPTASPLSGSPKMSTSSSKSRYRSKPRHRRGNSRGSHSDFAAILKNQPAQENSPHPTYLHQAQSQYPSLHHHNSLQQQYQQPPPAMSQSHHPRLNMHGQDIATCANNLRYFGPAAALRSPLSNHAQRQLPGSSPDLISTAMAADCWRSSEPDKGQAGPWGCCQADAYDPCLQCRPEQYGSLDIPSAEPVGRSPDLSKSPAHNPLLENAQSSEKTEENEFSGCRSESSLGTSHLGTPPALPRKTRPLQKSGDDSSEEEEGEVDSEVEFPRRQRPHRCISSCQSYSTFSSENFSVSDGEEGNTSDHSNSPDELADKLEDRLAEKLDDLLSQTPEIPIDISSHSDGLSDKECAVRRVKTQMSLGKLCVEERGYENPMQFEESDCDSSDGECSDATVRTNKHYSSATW

[20] = biological target: Misshapen-like kinase 1 (Homo sapiens) (UniProt Q8N4C8)
[21] = biological target: Dual specificity mitogen-activated protein kinase kinase 7 (Homo sapiens) (UniProt O14733)
[22] = biological target: Mitogen-activated protein kinase kinase kinase 9 (Homo sapiens) (UniProt P80192)
Mitogen-activated protein kinase kinase kinase 9 (Homo sapiens), sequence (P80192 whole entry, looked up): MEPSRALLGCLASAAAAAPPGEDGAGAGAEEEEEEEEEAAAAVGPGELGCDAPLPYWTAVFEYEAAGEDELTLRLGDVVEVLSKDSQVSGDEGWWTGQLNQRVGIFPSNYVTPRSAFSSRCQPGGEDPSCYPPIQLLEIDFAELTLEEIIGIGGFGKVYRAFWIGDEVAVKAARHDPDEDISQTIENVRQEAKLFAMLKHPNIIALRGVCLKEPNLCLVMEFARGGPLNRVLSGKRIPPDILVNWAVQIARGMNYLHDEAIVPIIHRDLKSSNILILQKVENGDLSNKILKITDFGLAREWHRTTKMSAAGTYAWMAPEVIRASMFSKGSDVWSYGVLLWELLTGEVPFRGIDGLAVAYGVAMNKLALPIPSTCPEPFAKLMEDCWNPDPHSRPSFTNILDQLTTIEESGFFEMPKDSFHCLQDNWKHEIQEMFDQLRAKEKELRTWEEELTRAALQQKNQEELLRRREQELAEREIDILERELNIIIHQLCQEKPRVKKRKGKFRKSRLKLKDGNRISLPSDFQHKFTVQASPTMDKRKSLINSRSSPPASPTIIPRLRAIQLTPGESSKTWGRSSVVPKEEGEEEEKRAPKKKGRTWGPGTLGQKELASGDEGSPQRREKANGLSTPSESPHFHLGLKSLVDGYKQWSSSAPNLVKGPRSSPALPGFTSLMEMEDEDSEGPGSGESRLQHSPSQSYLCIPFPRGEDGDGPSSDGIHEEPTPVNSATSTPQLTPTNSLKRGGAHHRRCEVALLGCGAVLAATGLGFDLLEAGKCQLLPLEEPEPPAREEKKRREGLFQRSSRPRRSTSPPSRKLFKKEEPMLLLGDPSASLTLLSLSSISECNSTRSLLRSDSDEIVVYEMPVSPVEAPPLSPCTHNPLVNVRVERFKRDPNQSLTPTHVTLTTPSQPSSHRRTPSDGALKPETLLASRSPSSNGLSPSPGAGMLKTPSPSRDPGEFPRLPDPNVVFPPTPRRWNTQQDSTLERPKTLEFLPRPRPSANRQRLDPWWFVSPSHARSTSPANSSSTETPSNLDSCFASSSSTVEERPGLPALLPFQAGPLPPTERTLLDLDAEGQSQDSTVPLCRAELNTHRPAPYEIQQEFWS

[23] = biological target: Myosin-IIIb (Homo sapiens) (UniProt Q8WXR4)
[24] = biological target: Serine/threonine-protein kinase NLK (Homo sapiens) (UniProt Q9UBE8)
[25] = biological target: Calcium-dependent protein kinase 1 (Plasmodium falciparum) (UniProt P62344)
[26] = biological target: cAMP-dependent protein kinase catalytic subunit beta (Homo sapiens) (UniProt P22694)
[27] = biological target: Protein kinase C iota type (Homo sapiens) (UniProt P41743)
[28] = biological target: cGMP-dependent protein kinase 2 (Homo sapiens) (UniProt Q13237)
[29] = biological target: Serine/threonine-protein kinase SIK3 (Homo sapiens) (UniProt Q9Y2K2)
[30] = system: Proto-oncogene tyrosine-protein kinase receptor Ret (Homo sapiens), P07949 [V804L]
[31] = biological target: Ribosomal protein S6 kinase alpha-1 (Homo sapiens) (UniProt Q15418)
Ribosomal protein S6 kinase alpha-1 (Homo sapiens), sequence (Q15418 whole entry): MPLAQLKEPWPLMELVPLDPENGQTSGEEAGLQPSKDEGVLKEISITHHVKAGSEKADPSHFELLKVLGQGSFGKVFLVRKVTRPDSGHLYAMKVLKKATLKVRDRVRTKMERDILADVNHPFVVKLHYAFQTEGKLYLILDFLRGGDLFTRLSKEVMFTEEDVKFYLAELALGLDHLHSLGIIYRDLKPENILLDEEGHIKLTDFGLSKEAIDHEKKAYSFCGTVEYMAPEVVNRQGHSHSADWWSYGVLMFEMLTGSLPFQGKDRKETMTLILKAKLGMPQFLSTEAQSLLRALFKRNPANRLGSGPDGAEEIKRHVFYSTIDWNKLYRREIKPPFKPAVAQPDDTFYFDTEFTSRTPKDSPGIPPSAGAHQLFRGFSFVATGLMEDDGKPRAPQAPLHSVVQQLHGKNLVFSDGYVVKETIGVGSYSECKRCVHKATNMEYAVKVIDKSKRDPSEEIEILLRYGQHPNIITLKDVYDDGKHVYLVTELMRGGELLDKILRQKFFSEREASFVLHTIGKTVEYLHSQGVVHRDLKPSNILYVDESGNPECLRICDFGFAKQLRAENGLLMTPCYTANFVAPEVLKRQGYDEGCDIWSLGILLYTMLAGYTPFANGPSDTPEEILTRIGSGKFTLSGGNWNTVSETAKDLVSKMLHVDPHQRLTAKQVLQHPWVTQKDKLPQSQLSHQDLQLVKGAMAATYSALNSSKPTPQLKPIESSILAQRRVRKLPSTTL

[32] = biological target: Ribosomal protein S6 kinase alpha-6 (Homo sapiens) (UniProt Q9UK32)
[33] = biological target: NUAK family SNF1-like kinase 2 (Homo sapiens) (UniProt Q9H093)
[34] = biological target: SRSF protein kinase 2 (Homo sapiens) (UniProt P78362)
[35] = biological target: Serine/threonine-protein kinase 35 (Homo sapiens) (UniProt Q8TDR2)
[36] = biological target: TGF-beta receptor type-2 (Homo sapiens) (UniProt P37173)
[37] = biological target: Tyrosine-protein kinase TXK (Homo sapiens) (UniProt P42681)
[38] = biological target: Non-receptor tyrosine-protein kinase TYK2 (Homo sapiens) (UniProt P29597)
[39] = biological target: Serine/threonine-protein kinase 32B (Homo sapiens) (UniProt Q9NY57)
[40] = biological target: Tyrosine-protein kinase ZAP-70 (Homo sapiens) (UniProt P43403)
[41] = biological target: 5-hydroxytryptamine receptor 2C (Homo sapiens) (UniProt P28335); conditions: Compound concentration 10.0 uM
[42] = biological target: 5-hydroxytryptamine receptor 5A (Homo sapiens) (UniProt P47898); conditions: Compound concentration 10.0 uM
Mu-type opioid receptor = Mu-type opioid receptor (Homo sapiens, UniProt P35372); conditions: Compound concentration 10.0 uM
[43] = biological target: Alpha-2B adrenergic receptor (Homo sapiens) (UniProt P18089); conditions: Compound concentration 10.0 uM
[44] = biological target: Alpha-1D adrenergic receptor (Homo sapiens) (UniProt P25100); conditions: Compound concentration 10.0 uM
[45] = Compound concentration 1000.0 nM
[46] = Compound concentration 100.0 nM

Cc1cc(NC(=O)c2cccc(S(F)(F)(F)(F)F)c2)cc(-n2ccn3nc(-c4cccnc4)cc23)c1 [BAY-309] gave a residual activity [1, 45] of 66.7%, a residual activity [2, 45] of 100% and a residual activity [3, 45] of 60.8%. It also gave a residual activity [4, 45] of 100%, a residual activity [5, 45] of 100% and a residual activity [6, 45] of 89%. The residual activity [7, 45] was 100%, the residual activity [8, 45] was 76% and the residual activity [9, 45] was 100%. The residual activity [10, 45] was 100%, the residual activity [11, 45] was 100% and the residual activity [12, 45] was 81.7%. For the same compound, the residual activity [13, 45] was 100%, the residual activity [14, 45] was 100% and the residual activity [15, 45] was 100%. It also gave a residual activity [16, 45] of 95.8%, a residual activity [17, 45] of 66.1% and a residual activity [18, 45] of 100%. It also gave a residual activity [19, 45] of 100%, a residual activity [20, 45] of 82% and a residual activity [21, 45] of 89.7%. The residual activity [22, 45] was 77.7%, the residual activity [23, 45] was 73.8% and the residual activity [24, 45] was 100%. The residual activity [25, 45] was 95.1%, the residual activity [26, 45] was 100% and the residual activity [27, 45] was 80.4%. The residual activity [28, 45] was 100%, the residual activity [29, 45] was 100% and the residual activity [30, 45] was 100%. The residual activity [31, 45] was 91.7%, the residual activity [32, 45] was 100% and the residual activity [33, 45] was 100%. It also gave a residual activity [34, 45] of 100%, a residual activity [35, 45] of 100% and a residual activity [36, 45] of 94.5%. For the same compound, the residual activity [37, 45] was 56.2%, the residual activity [38, 45] was 100% and the residual activity [39, 45] was 100%. For the same compound, the residual activity [40, 45] was 100%, the inhibition [41] was 66% and the inhibition [42] was -4.71%. The inhibition (Mu-type opioid receptor) was 60%, the inhibition [43] was 11.9% and the inhibition [44] was 27.7%.
Cc1cc(C)c(-n2ccn3nc(-c4cccnc4)cc23)cc1NC(=O)c1cc(C#N)cc(S(F)(F)(F)(F)F)c1 [BAY-826] gave a residual activity [1, 46] of 74.5%, a residual activity [2, 46] of 87.5% and a residual activity [3, 46] of 83.8%. For the same compound, the residual activity [4, 46] was 95.6%, the residual activity [5, 46] was 85.5% and the residual activity [6, 46] was 92.9%. The residual activity [7, 46] was 85.1%, the residual activity [8, 46] was 100% and the residual activity [9, 46] was 100%. The residual activity [10, 46] was 100%, the residual activity [11, 46] was 99.6% and the residual activity [12, 46] was 84.3%. It also gave a residual activity [13, 46] of 99.4%, a residual activity [14, 46] of 100% and a residual activity [15, 46] of 91.4%. It also gave a residual activity [16, 46] of 100%, a residual activity [17, 46] of 87.7% and a residual activity [18, 46] of 91.8%. For the same compound, the residual activity [19, 46] was 97.9%, the residual activity [20, 46] was 88.9% and the residual activity [21, 46] was 70.8%. It also gave a residual activity [22, 46] of 79.5%, a residual activity [23, 46] of 82.4% and a residual activity [24, 46] of 100%. For the same compound, the residual activity [25, 46] was 88.9%, the residual activity [26, 46] was 100% and the residual activity [27, 46] was 100%. The residual activity [28, 46] was 82.7%, the residual activity [29, 46] was 75.3% and the residual activity [30, 46] was 93.6%. It also gave a residual activity [31, 46] of 97%, a residual activity [32, 46] of 80.4% and a residual activity [33, 46] of 86.1%. For the same compound, the residual activity [34, 46] was 60.1%, the residual activity [35, 46] was 92% and the residual activity [36, 46] was 78.6%. The residual activity [37, 46] was 98.3%, the residual activity [38, 46] was 87.3% and the residual activity [39, 46] was 94.3%. For the same compound, the residual activity [40, 46] was 79.9%, the inhibition [41] was 34.5% and the inhibition [42] was 9.57%. The inhibition (Mu-type opioid receptor) was 20.7%, the inhibition [43] was 18.1% and the inhibition [44] was -2.46%.
